Results from PMC8280112, “Substrate reduction therapy for Krabbe disease and metachromatic leukodystrophy using a novel ceramide galactosyltransferase inhibitor” (Scientific Reports, 2021).

Legend:
rhARSA = biological target: T1, rhARSA (Homo sapiens, UniProt P15289); assay: Arylsulfatase A assay; assay type: biochemical; details: read-out: ARSA IC50
T1 construct: purchased R&D systems
T1 sequence (P15289 19-507): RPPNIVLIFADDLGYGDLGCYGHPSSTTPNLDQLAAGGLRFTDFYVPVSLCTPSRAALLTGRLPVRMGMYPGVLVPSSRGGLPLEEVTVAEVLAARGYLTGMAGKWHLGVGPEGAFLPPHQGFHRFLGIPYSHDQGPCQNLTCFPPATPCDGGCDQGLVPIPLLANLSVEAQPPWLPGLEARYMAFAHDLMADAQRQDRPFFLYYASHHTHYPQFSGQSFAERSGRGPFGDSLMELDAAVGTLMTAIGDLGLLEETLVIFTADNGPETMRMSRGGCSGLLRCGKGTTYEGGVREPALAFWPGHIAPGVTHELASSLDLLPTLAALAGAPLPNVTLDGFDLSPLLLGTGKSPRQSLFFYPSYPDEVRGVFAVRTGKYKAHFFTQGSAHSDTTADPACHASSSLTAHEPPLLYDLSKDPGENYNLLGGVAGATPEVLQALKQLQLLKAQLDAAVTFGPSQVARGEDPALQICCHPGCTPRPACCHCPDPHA
Experimental: The ARSA assay was modified from a previously reported method. The reaction mixture contained 40 ng of rhARSA (R&D systems), various concentrations of inhibitor, and 6.2 µM N-octadecanoyl-d3-sulfatide substrate in reaction buffer (0.08 M sodium acetate at pH 4.5, 2.08 g/L sodium taurodeoxycholate, 33 mM MnCl2, 0.4% DMSO) and was incubated for 16 h at 37 °C. The reaction was terminated with equal volume MeOH:ethyl acetate (EA). N-octadecanoyl-d35-psychosine (Matreya) was added as the IS, together with 400 µL EA and 200 µL H2O. After centrifugation, 200 µL of the EA layer was dried under a stream of N2 and resuspended in 100 µL MeOH before quantifying the N-octadecanoyl-d3-galactosylceramide product using a reported UPLC–MS/MS method.

wild-type mice [1] = assay: PND15 wild-type mice tolerability study: blood chemistry and hematology; assay type: in vivo, mouse; details: PND15-PND70, Avg
Experimental: Maximum obtainable terminal blood collection was taken via cardiac puncture and split. 200 µL into clot-activating tubes for serum processing and the following chemistry panel: AST, ALT, CKMB and electrolytes. 220 µL stored on wet ice and used for CBC.
Animals were euthanized with CO2 followed by cardiac puncture. Blood was collected via cardiac puncture and split for blood chemistry and hematology.

wild-type mice [2] = assay: Low dose treatment of wild-type mice PND3 to PND70: vacuolation; assay type: in vivo, mouse; details: PND3 to PND70, 0.15 mg/kg
[3] = 2.3 mg/kg IP three times per week
[4] = 5.4 mg/kg IP three times per week

Structure (SMILES): C[C@H]1N(c2ccc(Br)cc2)C(=O)N(c2ccc(Br)cc2)C1(O)c1cccc(OC(F)(F)F)c1 (stereo partly drawn) [S202]
- IC50 (rhARSA): > 50 µM
- #BASO (wild-type mice [1]; [3]): 0.02 10^3cells/µL
- #EOS (wild-type mice [1]; [3]): 0.14 10^3cells/µL
- #LUC (wild-type mice [1]; [3]): 0.11 10^3cells/µL
- #LYMPH (wild-type mice [1]; [3]): 4.3 10^3cells/µL
- #MONO (wild-type mice [1]; [3]): 0.12 10^3cells/µL
- #NEUT (wild-type mice [1]; [3]): 0.8 10^3cells/µL
- #RETIC (wild-type mice [1]; [3]): 291 10^9cells/L
- %BASO (wild-type mice [1]; [3]): 0.4%
- %EOS (wild-type mice [1]; [3]): 2.4%
- %LUC (wild-type mice [1]; [3]): 2%
- %LYMPH (wild-type mice [1]; [3]): 78.8%
- %MONO (wild-type mice [1]; [3]): 2.3%
- %NEUT (wild-type mice [1]; [3]): 14.3%
- %RETIC (wild-type mice [1]; [3]): 2.9%
- ALT (wild-type mice [1]; [3]): 257.2 IU/L
- AST (wild-type mice [1]; [3]): 283.5 IU/L
- CH (wild-type mice [1]; [3]): 13.3 pg
- CHCM (wild-type mice [1]; [3]): 27.5 g/dL
- CHR (wild-type mice [1]; [3]): 14.6 pg
- CHm (wild-type mice [1]; [3]): 14 pg
- CKMB (wild-type mice [1]; [3]): 250.5 U/L
- CL (wild-type mice [1]; [3]): 109.4 mmol/L
- HCT (wild-type mice [1]; [3]): 47.9%
- HDW (wild-type mice [1]; [3]): 1.9 g/dL
- HGB (wild-type mice [1]; [3]): 15.3 g/dL
- HGBCell (wild-type mice [1]; [3]): 13.2 g/dL
- K (wild-type mice [1]; [3]): 10.5 mmol/L
- MCH (wild-type mice [1]; [3]): 15.4 pg
- MCHC (wild-type mice [1]; [3]): 31.9 g/dL
- MCV (wild-type mice [1]; [3]): 48.2 fL
- MPM (wild-type mice [1]; [3]): 1.3 pg
- MPV (wild-type mice [1]; [3]): 5.4 fL
- NA (wild-type mice [1]; [3]): 148 mmol/L
- PDW (wild-type mice [1]; [3]): 37.1%
- PLT (wild-type mice [1]; [3]): 1.02e+06 µL⁻¹
- RBC (wild-type mice [1]; [3]): 9.9e+06 µL⁻¹
- RDW (wild-type mice [1]; [3]): 12.2%
- WBC (wild-type mice [1]; [3]): 5500 µL⁻¹
- #BASO (wild-type mice [1]; [4]): 0.013 10^3cells/µL
- #EOS (wild-type mice [1]; [4]): 0.4 10^3cells/µL
- #LUC (wild-type mice [1]; [4]): 0.047 10^3cells/µL
- #LYMPH (wild-type mice [1]; [4]): 3.8 10^3cells/µL
- #MONO (wild-type mice [1]; [4]): 0.08 10^3cells/µL
- #NEUT (wild-type mice [1]; [4]): 0.55 10^3cells/µL
- #RETIC (wild-type mice [1]; [4]): 285 10^9cells/L
- %BASO (wild-type mice [1]; [4]): 0.35%
- %EOS (wild-type mice [1]; [4]): 8.2%
- %LUC (wild-type mice [1]; [4]): 0.9%
- %LYMPH (wild-type mice [1]; [4]): 77.6%
- %MONO (wild-type mice [1]; [4]): 1.6%
- %NEUT (wild-type mice [1]; [4]): 11.4%
- %RETIC (wild-type mice [1]; [4]): 2.7%
- ALT (wild-type mice [1]; [4]): 99.5 IU/L
- AST (wild-type mice [1]; [4]): 132.8 IU/L
- CH (wild-type mice [1]; [4]): 13.1 pg
- CHCM (wild-type mice [1]; [4]): 27.3 g/dL
- CHR (wild-type mice [1]; [4]): 14.6 pg
- CHm (wild-type mice [1]; [4]): 13.8 pg
- CKMB (wild-type mice [1]; [4]): 126.4 U/L
- CL (wild-type mice [1]; [4]): 111.3 mmol/L
- HCT (wild-type mice [1]; [4]): 50.1%
- HDW (wild-type mice [1]; [4]): 1.93 g/dL
- HGB (wild-type mice [1]; [4]): 15.9 g/dL
- HGBCell (wild-type mice [1]; [4]): 13.7 g/dL
- K (wild-type mice [1]; [4]): 9.6 mmol/L
- MCH (wild-type mice [1]; [4]): 15.3 pg
- MCHC (wild-type mice [1]; [4]): 31.8 g/dL
- MCV (wild-type mice [1]; [4]): 48.1 fL
- MPM (wild-type mice [1]; [4]): 1.3 pg
- MPV (wild-type mice [1]; [4]): 5.82 fL
- NA (wild-type mice [1]; [4]): 150.9 mmol/L
- PDW (wild-type mice [1]; [4]): 46.63%
- PLT (wild-type mice [1]; [4]): 737200 µL⁻¹
- RBC (wild-type mice [1]; [4]): 1.04e+07 µL⁻¹
- RDW (wild-type mice [1]; [4]): 11.8%
- WBC (wild-type mice [1]; [4]): 4900 µL⁻¹
- vacuolation in brain, spine and sciatic nerve (wild-type mice [2]): vacuolation was observed in a similar pattern, but was much less severe
